Legend:
Assay type in all cases: cell-based, mouse
[1] = tested on: 4242Eμ-myc/Bcl-XL lymphomas; test: In vitro cell death analysis of Bcl-XL overexpressing lymphomas
From the text: (§1) To determine if increased expression of Bcl-XL could confer resistance to romidepsin, 4242Eμ-myc/Bcl-XL lymphomas were produced and tested for sensitivity to HDACi.
(§2) […] Viability of cells as measured by trypan blue exclusion assay, propidium iodide uptake, Annexin V staining, cell cycle analysis, or tetramethylrhodamine ethyl ester staining were done as described (Lindemann et al., Proc. Nat. Acad. Sci. USA 104:8071-8078, 2007).

[2] = tested on: acetylated histones H3 and H4; test: Western blot analysis of histone acetylation status; conditions: 4242Eμ-myc lymphomas; 3.0 nmol/L romidepsin, 0.1 mmol/L oxamflatin; 24-h time course
Description: Eμ-myc lymphoma cells were lysed in lysis buffer [0.15 mol/L NaCl, 10 mmol/L Tris-HCl (pH 7.4), 5 μmol/L EDTA, 1% Triton X-100] supplemented with protease inhibitors (leupeptin, pepstatin, and phenylmethylsulfonyl fluoride; Sigma-Aldrich) as described previously (Lindemann et al., Proc. Nat. Acad. Sci. USA 104:8071-8078, 2007). Proteins (30-50 μg) were separated on 10% or 15% SDS polyacrylamide gels electroblotted onto Immobilon-P […] membranes (Millipore). Membranes were incubated with the following antibodies: anti-mouse Bcl-2 (BD PharMingen), anti-mouse Bcl-XL (BD PharMingen), anti-mouse Bcl-w (Chemicon Australia), anti-mouse Mcl-1 (Rockland), anti-mouse A1 (Sapphire Biosciences), anti-Flag tag (Sigma-Aldrich), anti-acetylated histone H3 and antiacetylated histone H4 (Upstate Biosystems), anti-β actin (Sigma-Aldrich), and anti-tubulin (Sigma-Aldrich) overnight at 4° C. followed by subsequent incubation with horseradish peroxidase-conjugated secondary antibodies (DAKO) Immunoreactive bands were visualized by enhanced chemiluminescence (Amersham).

[3] = tested on: 4242Eμ-myc/Bcl-2 lymphomas; test: Cell cycle analysis of Eμ-myc/Bcl-2 cells treated with HDACi; conditions: 4242/Bcl-2
Description: (§3) Next, the cell cycle profiles of Eμ-myc/Bcl-2 lymphomas treated with oxamflatin and romidepsin over 3 days were assessed.
as §2

[4] = tested on: 226Eμ-myc/Bcl-2 lymphomas; test: as above; conditions: 226/Bcl-2
Description: as §3, §2

Eμ-myc lymphomas = test: In vitro cell death analysis (propidium iodide staining, loss of MOMP)
Description: (§4) Three different primary Eμ-myc lymphomas overexpressing Bcl-2 and control vector-transduced Eμ-myc cells were tested for sensitivity to the histone deacetylase inhibitors (HDACi) oxamflatin and romidepsin.
(§5) The primary function of prosurvival Bcl-2 proteins is to inhibit the activity of Bak and Bax proteins and thereby protect the mitochondrial membrane from damage (Cory et al., Nat. Rev. Cancer 2:647-656, 2002). To determine if the induction of apoptosis mediated by romidepsin in 4242Eμ-myc/Bcl-2 and 229Eμ-myc/Bcl-2 lymphomas was via perturbation of the mitochondrial membrane or through some other mechanism, HDACi-induced mitochondrial outer membrane permeabilization (MOMP) was quantitated by staining with tetramethylrhodamine ethyl ester (Molecular Probes).
as §2

Eμ-myc/Bcl-2 lymphomas = test: as above
Description: as §4, §5, §2

4242Eμ-myc lymphomas = test: In vitro cell death analysis (parental control of the Bcl-XL experiment)
Description: as §1
Eμ-myc lymphoma cells (5×10^5/mL) were incubated in the presence of the indicated compounds for 20 h in 1 mL cell culture medium in 24-well plates (Greiner Bio-One). Viability of cells as measured by trypan blue exclusion assay, propidium iodide uptake, Annexin V staining, cell cycle analysis, or tetramethylrhodamine ethyl ester staining were done as described (Lindemann et al., Proc. Nat. Acad. Sci. USA 104:8071-8078, 2007).

[5] = increasing concentrations over 24 h

With Oxamflatin the “plasma membrane integrity and mitochondrial function” value [1, 5] was “unaffected”, the cell cycle analysis ([1]; increasing doses) was “arrested in the G1 phase” and the “acetylation of histones H3 and H4” value [2] was “induced equivalent acetylation of histones H3 and H4”. For the same substance, the “% G1” value ([3]; 24 hr) was 59.4%, the “% G2/M” value ([3]; 24 hr) was 18.0% and the “% S phase” value ([3]; 24 hr) was 8.2%. For the same substance, the “% subG1” value ([3]; 24 hr) was 8.4%, the “% G1” value ([3]; 48 hr) was 62.3% and the “% G2/M” value ([3]; 48 hr) was 15.3%. For the same substance, the “% S phase” value ([3]; 48 hr) was 8.4%, the “% subG1” value ([3]; 48 hr) was 5.9% and the “% G1” value ([3]; 72 hr) was 66.7%. The “% G2/M” value ([3]; 72 hr) was 15.8%, the “% S phase” value ([3]; 72 hr) was 9.7% and the “% subG1” value ([3]; 72 hr) was 4.6%. The “% G1” value ([4]; 24 hr) was 50.0%, the “% G2/M” value ([4]; 24 hr) was 28.8% and the “% S phase” value ([4]; 24 hr) was 14.4%. The “% subG1” value ([4]; 24 hr) was 2.7%, the “% G1” value ([4]; 48 hr) was 62.6% and the “% G2/M” value ([4]; 48 hr) was 21.4%. For the same substance, the “% S phase” value ([4]; 48 hr) was 10.8%, the “% subG1” value ([4]; 48 hr) was 2.6% and the “% G1” value ([4]; 72 hr) was 78.2%. For the same substance, the “% G2/M” value ([4]; 72 hr) was 12.0%, the “% S phase” value ([4]; 72 hr) was 2.5% and the “% subG1” value ([4]; 72 hr) was 6.5%. The “cell killing (outer cell membrane damage, loss of mitochondrial membrane potential)” value (Eμ-myc lymphomas; 24-h dose-response assay) was “could effectively kill”, the “concentration of HDACi required to kill ˜70% of Eμ-myc lymphomas following 24-h treatment” value (Eμ-myc lymphomas; 24-h treatment) was 0.1 µmol/L and the “cell killing in time course” value (Eμ-myc/Bcl-2 lymphomas; 0.1 μmol/L, 72 h of continuous exposure) was “conferred resistance to oxamflatin”. The “cell killing (outer cell membrane damage, loss of mitochondrial membrane potential)” value (Eμ-myc/Bcl-2 lymphomas; 24-h dose-response assay, Bcl-2 overexpressing) was “but not Eμ-myc/Bcl-2 lymphomas”, the “plasma membrane integrity and mitochondrial function” value (4242Eμ-myc lymphomas; [5]) was “dose-dependent loss of plasma membrane integrity and mitochondrial function” and the “cell cycle analysis: DNA fragmentation” value (4242Eμ-myc lymphomas; increasing doses) was “DNA fragmentation occurred”. The “cell killing in time course” value (4242Eμ-myc lymphomas; parental Eμ-myc lymphomas, within the first 24 h, 3 nmol/L romidepsin or 0.1 μmol/L oxamflatin) was “effectively killed”.

— patent US20110269699A1, “CANCER THERAPY” (priority 2008, published 2011)
